Measured values: ChEMBL document CHEMBL5149985, “Discovery of cytotoxic natural products from Red Sea sponges: Structure and synthesis” (Eur J Med Chem, 2021)
Where a name gives a salt, the structure may show the parent alone.

What was measured:
HeLa = experiment: Anticancer activity against human HeLa cells assessed as inhibition of cell growth; assay type: functional, cell-based
MDA-MB-231 [1] = experiment: Anticancer activity against human MDA-MB-231 cells assessed as inhibition of cell growth incubated for 72 hrs by MTT assay; assay type: functional, cell-based; conditions: MDA-MB-231, 72 h
[2] = Inhibition of actin (unknown origin) polymerization incubated for 20 mins in presence of ATP by ELISA analysis; parameters: species or system Homo sapiens
Homo sapiens = species: Homo sapiens; experiment: Inhibition of actin (unknown origin) polymerization at 1 uM incubated for 20 mins in presence of ATP by ELISA analysis relative to control
[3] = Inhibition of actin (unknown origin) polymerization at 100 nM incubated for 20 mins in presence of ATP by ELISA analysis relative to control; conditions: Homo sapiens
KB 3-1 = experiment: Anticancer activity against human KB 3-1 cells assessed as inhibition in cell growth; assay type: functional, cell-based
HepG2 [4] = experiment: cells; conditions: Homo sapiens
Description: Anticancer activity against human HepG2 cells assessed as inhibition of cell growth by MTT assay

P388 = experiment: Anticancer activity against mouse P388 cells assessed as cell growth inhibition; assay type: functional, cell-based
MDA-MB-231 [5] = experiment: Anticancer activity against human MDA-MB-231 cells assessed as cell viability measured after 24 hrs by MTT assay; assay type: functional, cell-based; conditions: MDA-MB-231, 24 h
MCF7 [6] = experiment: Anticancer activity against human MCF7 cells assessed as inhibition of cell growth incubated for 72 hrs by MTT assay; assay type: functional, cell-based; conditions: MCF7, 72 h
HCT-116 [7] = experiment: cells; conditions: Homo sapiens
Description: Anticancer activity against human HCT-116 cells assessed as inhibition of cell growth by MTT assay

HCT-116 [8] = experiment: Anticancer activity against human HCT-116 cells assessed as inhibition of cell growth incubated for 72 hrs by SRB assay; assay type: functional, cell-based; conditions: HCT-116, 72 h
MCF7 [9] = experiment: Anticancer activity against human MCF7 cells assessed as inhibition of cell growth incubated for 72 hrs by SRB assay; assay type: functional, cell-based; conditions: MCF7, 72 h
HepG2 [10] = experiment: Anticancer activity against human HepG2 cells assessed as inhibition of cell growth incubated for 72 hrs by SRB assay; assay type: functional, cell-based; conditions: HepG2, 72 h
HT-29 = experiment: Anticancer activity against human HT-29 cells assessed as cell growth inhibition; assay type: functional, cell-based
A549 = experiment: Anticancer activity against human A549 cells assessed as cell growth inhibition; assay type: functional, cell-based

SMILES | IC50 (MDA-MB-231 [1]) [nM] | IC50 [2] [nM] | inhibition (Homo sapiens) [%] | inhibition [3] [%] | other results
C[C@H]1N[C@@H](C(=O)O)Cc2c1[nH]c1ccc(O)cc21 [HYRTIOERECTINE B] | – | – | – | – | IC50 (HeLa): 20 nM
CCN1C(=O)SC[C@H]1[C@@]1(OC)C[C@H]2C[C@@H](CC[C@H](C)/C=C\C=C\CC/C(C)=C\C(=O)O2)O1 | > 50000 | > 10000 | 18 | 0 | –
CC1=CC[C@H]2[C@H](CC[C@]2(C)O)C(C)(C)[C@@H]1CC[C@H]1[C@]2(C)CC[C@@H](O)O[C@H]2CC[C@@]1(C)O | – | – | – | – | IC50 (KB 3-1): 5.6 nM
CC[C@@]1(C)CCC[C@]2(C)[C@H]3C[C@H](OC(C)=O)[C@]4(C)CC(C(C)=O)=CC[C@H]4[C@]3(C)CC[C@@H]12 | – | – | – | – | IC50 (HepG2 [4]): 4.2 nM
C[C@@H]1CC[C@H]2[C@@H](/C1=C/C[C@H]1[C@]3(C)CCC(=O)C(C)(C)O[C@H]3CC[C@]1(C)O)C(C)(C)CC[C@]2(C)O | – | – | – | – | IC50 (KB 3-1): 4.7 nM
C#C/C=C\CCCCCCC#CC#CCCC/C=C\C#CCO [CALLYSPONGENOL B] | – | – | – | – | IC50 (P388): 32.6 nM; IC50 (HeLa): 32.6 nM
COC1=C(Br)[C@H]2OC(=O)C[C@]2(O)C=C1Br | – | – | – | – | IC50 (MDA-MB-231 [5]): 18000 nM
O=C(O)[C@H](O)Cc1c[nH]c2ccc(O)cc12 [HYRTIOERECTINE C] | – | – | – | – | IC50 (HeLa): 20 nM
C/C1=C/C(=O)O[C@@H]2C[C@@H](CC[C@H](C)/C=C\C=C\CC1)O[C@@](O)([C@@H]1CSC(=O)N1Cc1ccccc1)C2 | 2720 | 445 | 64 | 24 | IC50 (MCF7 [6]): 630 nM
C=C(OO)C(C)CC[C@@]1(C)C(CC[C@H]2[C@]3(C)CC[C@H](O)C(C)(C)O[C@H]3CC[C@@]2(C)O)=C(C)CC[C@H]1O (stereo partly drawn) | – | – | – | – | IC50 (KB 3-1): 4.6 nM
NC(=O)Cc1cc(Br)c(O)c(Br)c1O | – | – | – | – | IC50 (P388): 6.7 nM
O=C(O)C(=O)c1c(-c2c[nH]c3cc(O)ccc23)ncc2[nH]c3ccc(O)cc3c12 | – | – | – | – | IC50 (HeLa): 26 nM
CO[C@]1([C@@H]2CSC(=O)N2CCCO)C[C@H]2C[C@@H](CC[C@H](C)/C=C\C=C\CC/C(C)=C\C(=O)O2)O1 | > 50000 | 8550 | 21 | 0 | –
COc1ccc(CC(=O)N2C(=O)SC[C@H]2[C@@]2(OC)C[C@H]3C[C@@H](CC[C@H](C)/C=C\C=C\CC/C(C)=C\C(=O)O3)O2)cc1 | 26200 | > 10000 | 13 | 0 | –
C/C1=C/C(=O)O[C@@H]2C[C@@H](CC[C@H](C)/C=C\C=C\CC1)O[C@@](OC(=O)c1ccccc1)([C@@H]1CSC(=O)N1)C2 | 5050 | 466 | 67 | 23 | IC50 (MCF7 [6]): 520 nM
COc1cccc2c1C(=O)c1c(O)c3c(c(O)c1C2=O)C[C@@](O)(C(=O)CO)C[C@@H]3O[C@H]1C[C@H](N)[C@H](O)[C@H](C)O1 [DOXORUBICIN HYDROCHLORIDE] | – | – | – | – | IC50 (P388): 0.0114 nM; IC50 (HCT-116 [7]): 1.2 nM; IC50 (HepG2 [4]): 1 nM
CO[C@]1([C@@H]2CSC(=O)N2C)C[C@H]2C[C@@H](CC[C@H](C)/C=C\C=C\CC/C(C)=C\C(=O)O2)O1 | 19900 | > 10000 | 19 | 11 | –
CC(=O)O[C@@H]1C[C@@H]2[C@@]3(C)CCCC(C)(C)[C@@H]3CC[C@@]2(C)[C@@H]2CCC3=C(C(=O)OC3)[C@@]12C | – | – | – | – | IC50 (HCT-116 [8]): 14400 nM; IC50 (MCF7 [9]): 30700 nM; IC50 (HepG2 [10]): 17300 nM
CC1=C(CC[C@H]2[C@]3(C)CC[C@H](O)C(C)(C)O[C@H]3CC[C@]2(C)O)[C@@H]2[C@H](CC1OO)[C@@](C)(O)CCC2(C)C (stereo partly drawn) | – | – | – | – | IC50 (KB 3-1): 4.7 nM
CO[C@]1([C@@H]2CSC(=O)N2Cc2ccccc2)C[C@H]2C[C@@H](CC[C@H](C)/C=C\C=C\CC/C(C)=C\C(=O)O2)O1 | 6820 | 333 | 67 | 33 | IC50 (MCF7 [6]): 780 nM
C=C(CCCC(C)(C)O)C(=O)CC[C@@]1(C)CC[C@@H]([C@H](C)C(=O)OC)OO1 [AIKUPIKOXIDE D] | – | – | – | – | IC50 (P388): ≥ 1 µg/mL; IC50 (HT-29): ≥ 1 µg/mL; IC50 (A549): ≥ 1 µg/mL
C[C@@H]1C(=O)C[C@H]2[C@@H](/C1=C/C[C@H]1[C@]3(C)CC[C@H](O)C(C)(C)O[C@H]3CC[C@]1(C)O)C(C)(C)CC[C@]2(C)O [SIPHOLENOL J] | – | – | – | – | IC50 (KB 3-1): 4.7 nM
